Here are results for 21 compounds from patent US7932384B2, “Reverse-turn mimetics and method relating thereto” (Choongwae Pharma Corporation, priority 2001, dated 2011).

One data set in a line: physchem. The settings on record: 37 °C, thermodynamic from solid.
The test system of another data set is min mouse. The data set can be described thus: Min mouse model (polyp number). As to conditions: for % Inhibition vs. VH: total polyp number. The format is in vivo. The protocol:
Selected compounds of the present invention (Compound B and Compound C) were evaluated in the min mouse model to evaluate their efficacy as anti-cancer agents.
The min mouse model is a widely used model to test for this type of efficacy. The numbers of polyp formed in small intestine and colon of these mice after various treatments were measured (Table 7).

The subject of the next data set is SW480 cells. The data set can be described thus: Growth inhibition assay (MTS or sulforhodamine B), SW480. The format is cell-based. As to conditions: Homo sapiens.
The subject of a further data set is HCT116 cells. The data set can be described thus: Growth inhibition assay (MTS or sulforhodamine B), HCT116. The format is cell-based. As to conditions: Homo sapiens, HCT-116, 48 h, Table 5, MTS or sulforhodamine B assay, HCT116, 48 hours.
Data set [1] deals with TCF4/β-catenin transcriptional pathway. Briefly: Reporter gene assay (TOPFlash luciferase) in SW480 cells. The format is cell-based. The settings on record: Homo sapiens. The method, then:
SW480 cells were transfected with the usage of Superfect™ transfect reagent (Qiagen, 301307). Cells were trypsinized briefly 1 day before transfection and plated on 6 well plate (5×10^5 cells/well) so that they were 50-80% confluent on the day of transfection.
Four microgram (TOPFlash) and one microgram (pRL-null) of DNAs were diluted in 150 μl of serum-free medium, and 30 μl of Superfect™ transfect reagent was added. The DNA-Superfect mixture was incubated at room temperature for 15 min, and then, 1 ml of 10% FBS DMEM was added to this complex for an additional 3 hours of incubation. While complexes were forming, cells were washed with PBS twice without antibiotics.
The DNA-Superfect™ transfect reagent complexes were applied to the cells before incubating at 37° C. at 5% CO2 for 3 hours. After incubation, recovery medium with 10% FBS was added to bring the final volume to 1.18 ml. After 3 hours incubation, the cells were harvested and reseeded to 96 well plate (3×10^4 cells/well). After overnight incubation at 37° C. at 5% CO2, the cells were treated with Compound A for 24 hours. Finally, the activity was checked by means of luciferase assay (Promega, E1960).

A further data set has as its system survivin promoter. The data set can be described thus: Survivin luciferase reporter in SW480 cells. The format is cell-based. As to conditions: Homo sapiens, SW480, read-out: RGA, Survivin IC50, uM, Table 10, prodrug compounds, reporter gene assay survivin. A general note: Reporter assays use an easily measured gene product as a stand-in for the process of interest.

Where [2] appears, read: pH 1.2, simulated gastric fluid, Solubility JP1 (pH 1.2), 0 hr.
Where [3] appears, read: pH 1.2, simulated gastric fluid, Solubility JP1 (pH 1.2), 2 hr.
[4] abbreviates: pH 1.2, simulated gastric fluid, Solubility JP1 (pH 1.2), 20 hr.
Setting [5] is: pH 6.8, fassgf or other biorelevant, Solubility JP2 (pH 6.8), 0 hr.
[6] abbreviates: pH 6.8, fassgf or other biorelevant, Solubility JP2 (pH 6.8), 2 hr.
[7] abbreviates: pH 6.8, fassgf or other biorelevant, Solubility JP2 (pH 6.8), 20 hr.
The mark [8] stands for this setting: SW480, 48 h, Table 5, MTS or sulforhodamine B assay, SW480, 48 hours, read-out: Growth Inhibition (GI50, uM) SW480.
[9] abbreviates: SW480, Table 4, selected library compounds, Reporter gene assay as described in Example 6, read-out: IC50.

Structures are written as SMILES. ≈ marks a conversion by molar mass, not a printed value. Where two headings read alike, the source gives them in different places.

As a reminder, the solubility is the concentration that dissolves in the medium under given conditions. Low values mean a poorly soluble substance, high ones a readily soluble substance. Take `C=CCN1CC(=O)N2[C@@H](Cc3ccc(OP(=O)([O-])[O-])cc3)C(=O)N(Cc3ccc(F)cc3F)C[C@@H]2N1C(=O)NCc1ccccc1.[Na+].[Na+]` [Compound 8]: the solubility in the data set “physchem” (setting [2]) was 671 µg/mL; in “physchem” (setting [3]), 775 µg/mL; in “physchem” (setting [4]) it was 921 µg/mL; in the data set “physchem” (setting [5]), 2300 µg/mL; in the data set “physchem” (setting [6]), 2320 µg/mL; in the data set “physchem” (setting [7]) it was 2270 µg/mL.
For `CN(C)c1cc(CN2C[C@H]3N(C(=O)CN(C)N3C(=O)NCc3ccccc3)[C@@H](Cc3ccc(OP(=O)([O-])[O-])cc3)C2=O)ccc1Cl.[Na+].[Na+]` [Compound 11], the solubility is 2010 µg/mL in “physchem” (setting [2]); 2000 µg/mL in the data set “physchem” (setting [3]); 2000 µg/mL in the data set “physchem” (setting [4]); 1640 µg/mL in the data set “physchem” (setting [5]); 1650 µg/mL in “physchem” (setting [6]); 1650 µg/mL in “physchem” (setting [7]).
On to `C=CCN1CC(=O)N2[C@@H](Cc3ccc(OP(=O)([O-])[O-])cc3)C(=O)N(Cc3cccc4cccnc34)C[C@@H]2N1C(=O)NCc1ccccc1.[Na+].[Na+]` [Compound 6], for which the solubility is 1450 µg/mL in “physchem” (setting [2]); 1720 µg/mL in the data set “physchem” (setting [3]); 1790 µg/mL in the data set “physchem” (setting [4]); 1830 µg/mL in the data set “physchem” (setting [5]); 1860 µg/mL in “physchem” (setting [6]); 1870 µg/mL in “physchem” (setting [7]).
As to `C=CCN1CC(=O)N2[C@@H](Cc3ccc(OP(=O)([O-])[O-])cc3)C(=O)N(Cc3ccc(Cl)c4cccnc34)C[C@@H]2N1C(=O)NCc1ccccc1.[Na+].[Na+]` [Compound 7], the solubility in “physchem” (setting [2]) was 309 µg/mL; in “physchem” (setting [3]), 446 µg/mL; in the data set “physchem” (setting [4]), 521 µg/mL; in “physchem” (setting [5]) it was 2140 µg/mL; in “physchem” (setting [6]) it was 2220 µg/mL; in “physchem” (setting [7]), 2240 µg/mL.
As for `CC1=C(CC(=O)O)c2cc(F)ccc2/C1=C\c1ccc([S+](C)[O-])cc1` (stereo not shown) [Sulindac], in the data set on min mouse (160 ppm), the “Polyp Number (Mean ± S.D.) Colon” value worked out at 0.5 ± 0.5, the “Polyp Number (Mean ± S.D.) Small Intestine” value is reported as 48.0 ± 20.7, the “Polyp Number (Mean ± S.D.) Total” value stood at 48.5 ± 20.9 and the “% Inhibition vs. VH” value was 28%.
With `CN1CC(=O)N2[C@@H](Cc3ccc(OP(=O)([O-])[O-])cc3)C(=O)N(Cc3cccc4cccnc34)C[C@@H]2N1C(=O)NCc1ccccc1.[Na+].[Na+]` [Compound 9], the solubility in the data set “physchem” (setting [2]) was 2250 µg/mL; in “physchem” (setting [3]), 2280 µg/mL; in the data set “physchem” (setting [4]), 2400 µg/mL; in “physchem” (setting [5]), 2320 µg/mL; in the data set “physchem” (setting [6]), 2350 µg/mL; in “physchem” (setting [7]), 2420 µg/mL.
Broadly, the GI50 is the concentration giving 50% growth inhibition. With `C=CCN1CC(=O)N2[C@@H](Cc3ccc(O)cc3)C(=O)N(Cc3ccc(F)cc3F)C[C@@H]2N1C(=O)NCc1ccccc1` [Compound 115], the GI50 in the data set on SW480 cells (setting [8]) amounted to 2 ± 0.7 µM; in the data set with HCT116 cells, 1.1 ± 0.04 µM.
Broadly, the IC50 is the point on the concentration scale where inhibition reaches its midpoint. Turning to `COC(=O)N1C2CN(CCc3ccc(F)cc3)C(=O)C(Cc3cccc4ccccc34)N2C(=O)CN1Cc1ccccc1` (stereo not shown) [Compound 1], in data set [1] (setting [9]), the IC50 was 12.8 µM.
For the compound `CN1CC(=O)N2[C@@H](Cc3ccc(O)cc3)CN(Cc3ccc(F)cc3F)C[C@@H]2N1C(=O)NCc1ccccc1` [Compound 77], the values for the GI50 with SW480 cells (setting [8]) and with HCT116 cells were 26.5 ± 6.5 µM and 10.7 ± 0.8 µM, respectively.
With `CN1CC(=O)N2[C@@H](Cc3ccc(O)cc3)C(=O)N(Cc3ccc(F)cc3F)C[C@@H]2N1C(=O)NCc1ccccc1` [Compound 13], the GI50 in the data set with SW480 cells (setting [8]) was 1.65 µM; in the data set on HCT116 cells it was 1.59 µM.
Turning to `CN(C)c1cc(F)c(F)cc1CN1C[C@H]2N(C(=O)CN(C)N2C(=O)NCc2ccccc2)[C@@H](Cc2ccc(OP(=O)([O-])[O-])cc2)C1=O.[Na+].[Na+]` [Compound 10], the solubility in “physchem” (setting [2]) was 2290 µg/mL; in “physchem” (setting [3]), 2270 µg/mL; in “physchem” (setting [4]), 2330 µg/mL; in the data set “physchem” (setting [5]), 2030 µg/mL; in “physchem” (setting [6]), 2060 µg/mL; in the data set “physchem” (setting [7]), 2030 µg/mL.
For `CCOP(=O)(CC(=O)Nc1ccc(C[C@H]2C(=O)N(Cc3cccc4ccccc34)C[C@H]3N2C(=O)CN(C)N3C(=O)NCc2ccccc2)cc1)OCC` [Compound 59], the GI50 in the data set with SW480 cells (setting [8]) is over 50 µM.
Consider `C=CCN1CC(=O)N2[C@@H](Cc3ccc(OP(=O)(O)O)cc3)C(=O)N(Cc3cccc4c3OCCN4C)C[C@@H]2N1C(=O)NCc1ccccc1` [Compound 169], for which, in data set [1] (setting [9]), the IC50 turned out to be 1 ± 0.1 µM.
`CN1CC(=O)N2[C@@H](Cc3ccc(O)cc3)C(=O)N(Cc3cccc4ccccc34)C[C@@H]2N1C(=O)NCc1ccccc1` [Compound 1]: the GI50 with SW480 cells (setting [8]) turned out to be 2.28 µM; in the data set with HCT116 cells, 1.78 µM.
On to `C=CCN1CC(=O)N2[C@@H](Cc3ccc(O)cc3)C(=O)N(Cc3ccc(F)cc3F)[C@@H](C)[C@@H]2N1C(=O)NCc1ccccc1` [Compound 147], for which the figures for the GI50 in the data set on SW480 cells (setting [8]) and with HCT116 cells were 6.1 ± 0.4 µM and 5.5 ± 0.4 µM, respectively.
For `CN1CC(=O)N2[C@@H](Cc3ccc(OP(=O)(O)O)cc3)C(=O)N(Cc3cccc4ccccc34)C[C@@H]2N1C(=O)NCc1ccccc1` [Compound 1], the IC50 in data set [1] (SW480, Table 10, prodrug compounds, reporter gene assay TopFlash, read-out: RGA, TopF IC50) stood at 4.2 µM; in the data set with survivin promoter it was 6.4 µM. In addition, in the data set on SW480 cells (SW480, Table 10, prodrug compounds, SW480, read-out: MTS, SW480 (uM) GI50), the GI50 is 2 µM. In addition, the solubility in the data set “physchem” (pH 1.2, simulated gastric fluid, Solubility JP1 (pH 1.2)) is 60.1 µg/mL (≈ 93.4 µM); in “physchem” (pH 6.8, fassgf or other biorelevant, Solubility JP2 (pH 6.8)), 1800 µg/mL (≈ 2790 µM).
As for `CN1CC(=O)N2[C@@H](Cc3ccc(O)cc3)C(=O)N(Cc3cccc4cccnc34)C[C@@H]2N1C(=O)NCc1ccccc1` [Compound B], in the data set on min mouse (300 mpk), the “Polyp Number (Mean ± S.D.) Colon” value is reported as 1.4 ± 0.9, the “Polyp Number (Mean ± S.D.) Small Intestine” value was 45.2 ± 22.1, the “Polyp Number (Mean ± S.D.) Total” value turned out to be 46.8 ± 17.0 and the “% Inhibition vs. VH” value was determined as 31%.
`CN1CC(=O)N2[C@@H](Cc3ccc(OP(=O)([O-])[O-])cc3)C(=O)N(Cc3ccc(F)cc3F)C[C@@H]2N1C(=O)NCc1ccccc1.[Na+].[Na+]` [Compound 4]: the solubility is 554 µg/mL in “physchem” (setting [2]); 646 µg/mL in “physchem” (setting [3]); 756 µg/mL in the data set “physchem” (setting [4]); 1980 µg/mL in the data set “physchem” (setting [5]); 2010 µg/mL in “physchem” (setting [6]); 2030 µg/mL in the data set “physchem” (setting [7]).
Regarding `CN(C)c1cc(F)ccc1CN1C[C@H]2N(C(=O)CN(C)N2C(=O)NCc2ccccc2)[C@@H](Cc2ccc(OP(=O)(O)O)cc2)C1=O` [Compound 3], the solubility in the data set “physchem” (setting [2]) is 1880 µg/mL (≈ 2870 µM); in “physchem” (setting [3]), 1970 µg/mL (≈ 3010 µM); in the data set “physchem” (setting [4]), 2040 µg/mL (≈ 3110 µM); in the data set “physchem” (setting [5]), 1320 µg/mL (≈ 2020 µM); in the data set “physchem” (setting [6]) it was 1900 µg/mL (≈ 2910 µM); in “physchem” (setting [7]), 2000 µg/mL (≈ 3060 µM).
As for `CN1CC(=O)N2[C@@H](Cc3ccc(OP(=O)(O)O)cc3)C(=O)N(Cc3cccc4cnn(C)c34)C[C@@H]2N1C(=O)NCc1ccccc1` [Compound 5], the solubility in “physchem” (setting [2]) was 406 µg/mL (≈ 627 µM); in “physchem” (setting [3]), 532 µg/mL (≈ 821 µM); in “physchem” (setting [4]) it was 684 µg/mL (≈ 1060 µM); in the data set “physchem” (setting [5]) it was 1760 µg/mL (≈ 2720 µM); in the data set “physchem” (setting [6]) it was 1780 µg/mL (≈ 2750 µM); in the data set “physchem” (setting [7]) it was 1760 µg/mL (≈ 2710 µM).
Regarding `CN1CC(=O)N2[C@@H](Cc3ccc(O)cc3)C(=O)N(Cc3cccc4c3cnn4CCN3CCOCC3)C[C@@H]2N1C(=O)NCc1ccccc1` [Compound 73], the GI50 came to 9.2 ± 0.8 µM in the data set with SW480 cells (setting [8]) and 15.8 ± 2.6 µM in the data set on HCT116 cells.
